Data set [1] relates to patient with SMP.
The test system of data set [2] is patients with SMP or SIP.
From the text: Patient Selection and Control Subjects: Six normotensive patients with chronic ongoing pain and cutaneous hyperalgesia to mechanical and cooling stimuli following soft tissue or nerve trauma were examined. All patients had previously undergone sympathetic blocks (i.e., local anesthetic blockade of the appropriate sympathetic ganglia) to assess the involvement of the sympathetic nerves in their pain state.
A series of 2-7 patches were applied consecutively to different sites within the hyperalgesic zone. Each patch was left in place for 2-10 days within this affected zone. Prior to, during and immediately after drug application, the following parameters were monitored: heart rate, blood pressure, ongoing pain and pain to mechanical and cold stimuli.
The scale consisted of a 100 mm line where “no pain” and “most intense pain” were indicated on the left and right ends of the scale respectively. […] The mechanical stimuli included innocuous brushing with a camel's hair brush and innocuous pressure from the 206 g weight of a 13 mm diameter (i.e., 2N) brass probe. Pain thresholds to mechanical stimuli were determined in the area within and surrounding the patch sites using calibrated von Frey filaments. The cooling stimulus consisted of small drops of acetone lightly placed onto the patient's skin. […] 3) Tactile sensibility: To rule out local anesthetic effects, the detection (touch) thresholds were determined in the area within the surrounding selected patch sites using calibrated von Frey filaments. In addition, the patient's ability to distinguish the blunt from the sharp ends of a pin was also assessed. The patients were instructed to close their eyes during the hyperalgesia and von Frey threshold testing procedures.
Data set [3] deals with normal subject. On the procedure:
Five normal subjects were used as controls. One subject was used to investigate the effect of clonidine on normal skin (i.e., the top of the foot). The four remaining subjects were used to assess the effect of intradermal norepinephrine and phenylephrine in normal skin.
To exclude further local anesthetic effects of clonidine, a clonidine patch was applied to the top of a normal subject's foot and sensory testing was performed prior to and 40 hours after the patch application.

The subject of data set [4] is patients with SMP. Briefly: Intradermal norepinephrine and phenylephrine in SMP patients (clonidine patch site, normal site).
Method: Effects of Intradermal Norepinephrine and Phenylephrine: In two patients, intradermal injections of the non-specific α-adrenergic agonist norepinephrine (5 μg in 10 μl normal saline) or the α-adrenergic agonist phenylephrine (10 μg in 10 μl normal saline) were made at a patch site immediately after removing the patch. Norepinephrine and phenylephrine injections were also made at control sites on the patients' normal limb and into the normal skin of 4 healthy control subjects. […] All injection were made in a single-blinded fashion. The patients and control subjects were instructed to rate the magnitude of any evoked pain and resultant hyperalgesia on a verbal scale from 0 to 10.
In data set [5] the test system is healthy control subjects. Briefly: Intradermal norepinephrine and phenylephrine in normal skin of control subjects. Type of data set: in vivo, human. How it is done: Five normal subjects were used as controls.
Effects of Intradermal Norepinephrine and Phenylephrine: In two patients, intradermal injections of the non-specific α-adrenergic agonist norepinephrine (5 μg in 10 μl normal saline) or the α-adrenergic agonist phenylephrine (10 μg in 10 μl normal saline) were made at a patch site immediately after removing the patch. […] All injection were made in a single-blinded fashion. The patients and control subjects were instructed to rate the magnitude of any evoked pain and resultant hyperalgesia on a verbal scale from 0 to 10.

The test system of data set [6] is patients with SMP. The conditions noted are these: cited from earlier work; for effect on pain in patients with SMP: in vivo.
For data set [7], the system named is α1 and α2 receptors. The conditions noted are these: cited from earlier work.
For data set [8] the following is noted: in vivo; cited from earlier work.
Data set [9] deals with patients with SMP. Briefly: Intravenous phentolamine block in patients with SMP. It is filed as in vivo, human. How it is done:
If peripheral α-adrenergic receptors are blocked completely, skin temperature would approach core temperature. Such a blockage would produce profound hypotension and a reflex tachycardia. […] This dose ranged from 35 mg to 45 mg over a 30 minute period.
The heart rate, systolic and diastolic blood pressure changes produced by phentolamine in a typical patient were relatively mild. In the first seven patients phentolamine alone was administered.
The patient was diagnosed as having SMP and then underwent local LABSG, and the administration of phentolamine systemically by intravenous injection.
Seventeen patients received both phentolamine and LABSG. The time of maximum relief of stimulus evoked pain correlated highly with the time at which there was maximum relief of stimulus-independent pain. All pain scores were converted to percent pain relief. The peak relief of stimulus independent pain for the LABSG compares favorably to the peak relief obtained from the phentolamine block. […] Patients with less than 50% pain relief from both procedures were considered to have pain independent of SMP. There was a high correlation of the results of the two procedures (r=0.78).

Like-named read-outs stand apart in the source and are kept apart here. A value given as a limit tells only on which side of the number the result lay.

For the compound `Clc1cccc(Cl)c1N=C1NCCN1` [clonidine], the “time to reduction of pain evoked by deep pressure, light brushing and cooling stimuli” value in data set [1] (after patch application) was in the range of 24 to 36 h. In addition, the “time to complete abolition of evoked pain” value in data set [1] (following patch application) is no more than 48 h. In data set [1] (human, in vivo), the “persistence of effect after removal of the patch” value is listed as “more than 24 hours”. For the same compound, the “adverse side effects, cardiovascular parameters” value in [1] (same patient) is “no adverse side effects or changes in cardiovascular parameters”. The “hyperalgesia of skin surrounding the patch” value in [1] (same patient) was “remained hyperalgesic”. Also, the “relief of hyperalgesia in the skin underlying the patch” value in [1] (sciatic nerve injury patient, 0.2 or 0.3 mg/day patch, 6 patches, 2-10 days each) is listed as “Complete relief”. Besides, the “detection threshold to mechanical stimuli in the patient” value in [1] (test for local anesthetic effect) is given as “did not alter”. Moreover, the “mechanical detection thresholds inside and outside the patch site” value in data set [2] (Case 1) is “identical”. Moreover, the “pain threshold to von Frey filaments within the patch site” value in data set [2] (Case 1) is “approximated the patient's ‘normal’ pain threshold”. The “ratings of stimulus-independent pain” value in data set [2] (Case 1) is “not affected”. Moreover, the “time hyperalgesia still absent after removing a patch” value in data set [2] (Case 1) was “at least 12 hours”. Also, the “Mechanical Hyperalgesia: post-clonidine” value in data set [2] (Case 1, SMP, lower extremity) is “−”; in [2] (Case 2, SMP, lower extremity) it was “−”; in data set [2] (Case 4, SMP, face), “−”; in [2] (Case 5, SIP, upper extremity), “+”; in [2] (Case 6, SIP, lower extremity), “+”. Further, the “Touch Detection Threshold: post-clonidine” value in data set [2] (Case 1, SMP, pre-clonidine 4) is given as 4 bars; in [2] (Case 2, SMP, pre-clonidine 1) it was 1 bars; in [2] (Case 3, SMP, pre-clonidine 1.5), 1.5 bars; in data set [2] (Case 4, SMP, pre-clonidine 0.5), 0.5 bars; in data set [2] (Case 5, SIP, pre-clonidine 1), 1 bars; in data set [2] (Case 6, SIP, pre-clonidine 2), 2 bars. Moreover, the “ability to distinguish sharp from blunt stimuli” value in data set [2] (Case 1, after patch removal) is on record as “not affected”. Further, the “mechanical (brush, pressure) and cooling (acetone) stimuli at patch site” value in [2] (Case 1, after removal of patch applied for 36 hours) is “detected but were not painful”. In addition, in data set [2] (Case 1, after removal of patch, before norepinephrine injection, untreated skin 4 out of 10), the “pain rating to light brushing at patch site” value is reported as 1 out of 10. For the same compound, in data set [2] (Case 1, four patches (FIG. 2)), the detection thresholds result was “unchanged”. Also, the “hyperalgesia to mechanical stimuli” value in [2] (Case 1, four patches with quantitative sensory testing (FIG. 2)) is “greatly reduced and, in many cases, completely eliminated”. The return of hyperalgesia result in [2] (Case 1, from patch application) was “within less than a week”. For the same compound, the “time to reduction of mechanical hyperalgesia after patch applied” value in data set [2] (Case 1, noted by patient) fell in the range of 36 to 48 h. Further, the “reduction of ongoing pain” value in data set [2] (Case 4) was 50-75%. The “relief of hyperalgesia throughout entire affected zone” value in data set [2] (Case 4, application to the upper lip) was “complete relief of hyperalgesia”. For the same compound, the “hyperalgesia and ongoing pain” value in data set [2] (Case 5, SIP, application to palmar aspect of the hand) was “Neither the patient's hyperalgesia nor ongoing pain were improved”. The “hyperalgesia to cold stimuli” value in data set [2] (Case 6, SIP) is listed as “not affected”. The “reduction in ongoing pain and mechanical hyperalgesia to brush stimuli” value in [2] (Case 6, SIP, patches on dorsum of the foot) is on record as “approximately 35%”. Also, in [2] (Cases 2, 3), the “overall level of stimulus-independent pain” value is “did not report any reduction”. For the same compound, the “extent of hyperalgesia relief” value in data set [2] (Cases 2, 3, zone greater than half of lower extremity) was “only eliminated hyperalgesia at or near the site of drug application”. The “alteration in blood pressure or heart rate” value in [2] (any of the patients) is on record as “No appreciable alteration”. The “pain or hyperalgesia (summary)” value in data set [2] (cases 5 and 6, pain independent of the sympathetics) is on record as “little effect on pain or hyperalgesia”. For the same compound, the “skin reaction surrounding the patch site” value in [2] (following some patch applications, treatment discontinued in cases 1, 4) is on record as “erythematous rash”. Also, the “mechanical and cold hyperalgesia at the site of drug administration (summary)” value in [2] (patients with SMP) was “significantly reduced mechanical and cold hyperalgesia”. Besides, the “side effects from clonidine patches” value in data set [2] (six patients) is on record as “minor”. Further, the “detection or pain threshold to mechanical stimuli in a normal subject” value in [3] (Example 2, test for local anesthetic effect) was “did not alter”. Moreover, the “pain and detection threshold to von Frey filaments” value in data set [3] (top of normal subject's foot, 40 hours after patch application) is “Neither the pain nor detection threshold to von Frey filaments were affected”.

`NC[C@H](O)c1ccc(O)c(O)c1` [norepinephrine]: the “pain evoked by injection at clonidine patch site” value in data set [4] (Case 1, intradermal 5 μg in 10 μl saline) is on record as “intense, burning pain sensation”. For the same compound, the “mechanical hyperalgesia rating at the patch site” value in data set [4] (Case 1, twenty-five minutes after injection) is given as 3.5 out of 10. Besides, the “pain and hyperalgesia after injection into normal limb” value in data set [4] (Cases 1 and 4, normal limb) is reported as “evoked intense pain, but did not result in hyperalgesia”. Further, the “pain and hyperalgesia after intradermal injection into the leg” value in data set [5] (four control subjects, norepinephrine 5 μg) is “mild, short lasting pain and no hyperalgesia”. Also, the “pain or hyperalgesia in normal subjects” value in data set [6] (intradermal injection) is listed as “does not cause pain or hyperalgesia”. Also, the “effect on pain and hyperalgesia relieved by sympathectomy or sympathetic block” value in [6] (intradermal injection, patients) is “rekindles the pain and hyperalgesia”.

`CC(COc1ccccc1)N(CCCl)Cc1ccccc1` (stereo not shown) [phenoxybenzamine]: in data set [7], the “potency in blocking α1 (postsynaptic) receptors relative to α2 receptors” value is “approximately 100 fold”. In addition, in [6], the “effect on pain in patients with SMP” value is recorded as “can be effective in relieving pain”.

As to `Cc1ccc(N(CC2=NCCN2)c2cccc(O)c2)cc1` [phentolamine], the “potency in inhibiting α1- relative to α2-adrenergic receptors” value in data set [7] is recorded as “three to five”. The plasma half-life entry in data set [8] is on record as “approximately 20 minutes”. For the same compound, the “pain relief following the blocks (local anesthetic sympathetic ganglion block, i.v. phentolamine)” value in [9] (Example 3 cases 1-4 (case 2 had no phentolamine block)) was 70-100%. Also, the “effect of block on pain” value in [9] (Example 3 cases 5, 6 (SIP)) was “not affected”. In data set [9] (IV phentolamine), the “side effect: dizziness” value turned out to be 2 patients, the “side effect: headache” value came out at 3 patients and the “side effect: nasal stuffiness” value worked out at 12 patients. Moreover, the “pain relief in patients with SMP (preliminary studies)” value in data set [9] (cumulative dose 35 mg to 45 mg over a 30 minute period) is reported as “effectively relieved pain”. Besides, the heart rate change entry in data set [9] (first seven patients, phentolamine alone) is “increased moderately”. Besides, the “time for pain to return to within 75% of baseline” value in data set [9] (five patients with more than 50% pain relief from phentolamine block) lay in the range of 2 to 7 h. The “pain relief with the phentolamine block” value in data set [9] (one patient with 45% maximum relief with LABSG) is “no relief”. In data set [9] (patients pretreated with propranolol 1-2 mg), the pulse rate change result was “minimal increase”. Further, the mean pain relief in data set [9] (patients who had 50% or greater pain relief following LABSG) is reported as 75%. Also, the “reduction in pain as measured by visual analysis scores” value in data set [9] (person, SMP right foot, IV, accumulated dose of 25 mg over 15 minutes) is on record as 80%. Moreover, the “time course over which pain gradually returned” value in [9] (same patient) is “about three”. Moreover, the “time pain remained at low level” value in data set [9] (same patient, after last phentolamine dose) is recorded as “about two”. Besides, the “patient's pain relieved” value in data set [9] (same patient, after two further injections each of 10 mg) is “over 80%”. The “gradual decrease in stimulus-independent pain” value in data set [9] (same patient, first 4 boli IV, total dose 15 mg) is “about 50%”. Further, the blood pressure change result in [9] (supine, with or without propranolol) was “little effected”. In addition, the “effect on sympathetically-maintained pain and hyperalgesia” value in data set [6] (intravenous administration) was “rapidly abolishes sympathetically-maintained pain and hyperalgesia”.

As for `CNC[C@H](O)c1cccc(O)c1` [phenylephrine], the “pain evoked at control site (volar forearm)” value in data set [4] (Case 4) was “moderate pain of shorter duration”. For the same compound, in data set [4] (Case 4, approximately 25 minutes after injection), the “ongoing level of pain” value is on record as “increased substantially”. In data set [4] (Case 4, intradermal 10 μg in 10 μl saline, after 3 days of clonidine), the “pain evoked by injection at clonidine patch site” value is recorded as “intense stinging pain”. Further, in [5] (control subjects, phenylephrine 10 μg), the “pain and hyperalgesia after injections” value is “Only brief, mild pain sensations and no hyperalgesia”.

Take `COc1cc2nc(N3CCN(C(=O)c4ccco4)CC3)nc(N)c2cc1OC` [prazosin]: in [7], the receptor subtype selectivity entry was “highly selective α1-blocking agent”. The “effect on pain in patients with SMP” value in data set [6] is “can be effective in relieving pain”.

As to `CC(C)NCC(O)COc1cccc2ccccc12` (stereo not shown) [propranolol], in [9] (0.5 mg intravenously, five minutes after last phentolamine dose), the “effect on pain when added after α-adrenergic blockade” value is given as “did not add appreciably to the analgesia”. The “effect on pain in patients with SMP” value in data set [6] was “little effect on SMP”.

The values above are taken from patent USRE41998E1, “Compositions and methods of treatment of sympathetically maintained pain” (Arclon Therapeutics, Inc., priority 1990, dated 2010).
